Reference: patent US8906953B2, “Pyrrolidine substitute flavones for the treatment of inflammatory disorders” (Piramal Enterprises Limited, priority 2010, dated 2014)

How the values were obtained:
p38 MAP kinase = target: T1, p38 MAP kinase (Homo sapiens, UniProt Q16539); assay: p38 MAP kinase inhibition, western blot in anisomycin-stimulated Jurkat cells; type: cell-based; settings: 0.1 μM, anisomycin 10 μg/mL 30 minutes
T1 construct: endogenous in cells; host or cells: Jurkat T-cells (ATCC)
Protocol: The method for identifying inhibitors of p38 mitogen-activated protein (MAP) Kinase was designed as in reference, Journal of Lipid Research, 1999, 40, 1911-1919, the disclosure of which is incorporated herein by reference for the teaching of the assay.
Human Jurkat T-cells from American Type Culture Collection (ATCC) were cultivated in Rosewell Park Memorial Institute (RPMI) medium supplemented with 10% fetal bovine serum (FBS), penicillin (100 U/mL) and streptomycin (100 μg/mL) at 37° C. in humidified atmosphere of 95% air-5% CO2. Culture medium was changed every 2-3 days and always 24 hours before harvest. RPMI medium, FBS, CellLytic, anti-β-actin, sodium orthovanadate and anisomycin were purchased from Sigma-Aldrich (USA). TNF-α was purchased from R & D Systems (USA). Complete Protease inhibitor cocktail was procured from Roche.
Jurkat cells were preincubated with vehicle or the compound of example 3 (0.1 μM) for 1 hour in a 37° C., CO2 incubator. For MAPK experiments, the cells were stimulated with anisomycin (10 μg/mL) for 30 minutes. SB 203580 was used as a standard (1 μM). […] Aliquots of the resulting extracts were analyzed for their protein content using the Coomassie Plus Protein Assay Reagent (Pierce) following manufacturer's instructions. […]

PDE4 = PDE4 inhibition, cAMP fluorescence assay in salbutamol-stimulated U937 cells; type: cell-based, human; settings: for Relative Fluorescence (RF): U937 cells, salbutamol 1 μM
Protocol: Culture medium was changed every 2-3 days and always 24 hours before harvest. RPMI medium, FBS and Salbutamol were purchased from Sigma-Aldrich (USA). Rolipram was synthesized in the Medicinal Chemistry Department, Piramal Life Sciences Limited.
Rolipram was used as a standard (0.3, 1 and 3 μM). […] Fluorescence measurements were taken with Polarstar Optima (BMG Labtech-Germany).
Relative fluorescence was calculated using the following formula where: RF=Relative Fluorescence, Fo=fluorescent intensity of the blank or buffer control, F=fluorescence of cAMP or sample: RF=(Fo−F)/Fo
A standard curve was plotted using the RF values of the given standards and the values of cAMP corresponding to the test compounds were determined using the standard plot.

[1] = tested on: arthritic (CIA) DBA/1J mice; assay: Collagen induced arthritis in mouse; type: in vivo; settings: 50 mg/kg oral twice daily, 23 days
Protocol: The assay was designed as in reference, J. Exp. Med., 1985, 162, 637-646, the disclosure of which is incorporated herein by reference for the teaching of the assay.
Male DBA/1J mice (originally procured from Jackson Laboratories, USA), aged 8-10 weeks were immunized with an emulsion equivalent to 200 μg of type II collagen in Freund's Complete Adjuvant, injected intradermally at the base of the tail. A booster shot with the same emulsion was given 21 days later. A group of naïve mice was maintained alongside.
From day 23 to day 56, mice were examined daily once for the signs of rheumatoid arthritis, using the Articular Index and paw thickness as parameters. Articular Index scoring was performed employing the following criteria:
Mice with a minimum hind paw score of 2 were inducted into the study.
Mice were randomized into the various study groups and orally administered the vehicle (0.5% CMC, 1 ml/kg), test compound (compound of example 3, 50 mg/kg twice daily) and standard compound (Enbrel, 3 mg/kg, s.c., once daily). […] The dosing of the compounds was done for 23 days.
The following parameters were observed and recorded daily, • 1. Body weight • 2. Articular index • 3. Paw thickness in mm using a tension free caliper • 4. Any significant observation regarding the condition of the animal. […]
The results are graphically depicted in FIG. 3 (Articular index versus days of treatment) and FIG. 4 (Paw thickness versus days of treatment). Data obtained during the course of this study (articular index and paw thickness) was statistically evaluated by applying Mann-Whitney U test.
Mice were humanely euthanized and the hind paws were harvested from each animal, fixed in 10% neutral buffered formalin, decalcified in 5% formic acid and embedded in paraffin. Section […] were stained with either hematoxylin and eosin or safranin 0 and evaluated microscopically. Histopathological changes were scored as follows: mild (score=1), moderate (score=2) or severe (score=3) for the parameters of cellular infiltration, bone erosions and cartilage damage, graded separately. […]

T1 sequence (Q16539 whole entry): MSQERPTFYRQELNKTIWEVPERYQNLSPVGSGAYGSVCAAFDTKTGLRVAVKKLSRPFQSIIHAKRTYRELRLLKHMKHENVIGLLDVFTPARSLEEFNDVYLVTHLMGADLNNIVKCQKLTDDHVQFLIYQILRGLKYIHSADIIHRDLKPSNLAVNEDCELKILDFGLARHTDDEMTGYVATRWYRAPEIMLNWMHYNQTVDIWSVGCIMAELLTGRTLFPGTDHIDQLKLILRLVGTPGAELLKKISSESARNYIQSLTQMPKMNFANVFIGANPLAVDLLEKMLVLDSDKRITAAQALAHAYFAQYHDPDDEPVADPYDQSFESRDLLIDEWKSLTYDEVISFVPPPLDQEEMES

CN1CC[C@@H](c2c(O)cc(O)c3c(=O)cc(-c4ccc(C(F)(F)F)cc4Cl)oc23)[C@@H]1CO.Cl [Compound of example 3, (+)-trans-2-(2-Chloro-4-trifluoromethyl-phenyl)-5,7-dihydroxy-8-(2-hydroxymethyl-1-methyl-pyrrolidin-3-yl)-chromen-4-one hydrochloride]
p38 MAP kinase inhibition (western blot) (p38 MAP kinase): not an inhibitor of p38 MAP kinase | PDE4 inhibition (conclusion) (PDE4; U937 cells, 1, 3 and 10 μM): not a PDE4 inhibitor | Relative Fluorescence (RF) (PDE4; concentration 1 μM): 0.71 | Relative Fluorescence (RF) (PDE4; concentration 3 μM): 0.95 | Relative Fluorescence (RF) (PDE4; concentration 10 μM): 0.95 | Severity of disease by articular index and paw thickness [1]: trend towards ameriolation of the disease | Histopathological evaluation of hind paws ([1]; cellular infiltration, bone erosions, cartilage damage): potential anti-arthritic effect
